Laboratory results reported in patent US10259779B2 (WAYNE STATE UNIVERSITY, priority 2016, dated 2019).

Assays:
[1] = molecular target: T1, recombinant HDAC8 (Homo sapiens, UniProt Q9BY41); assay: Recombinant HDAC8 inhibition (HDAC-Glo); type: biochemical; settings: for activity at 0.1 µM: 1.0 × 10^−7 M; for activity at 0.2 µM: 2.0 × 10^−7 M; for activity at […]: 2.5 × 10^−8 M; for activity at 0.05 µM: 5.0 × 10^−8 M; for HDAC8 fold selectivity HDAC1: HDAC8 over HDAC1; for HDAC8 fold selectivity HDAC1 / HDAC8 fold selectivity HDAC2 / HDAC8 fold selectivity HDAC3: calculated from IC50 values; for HDAC8 fold selectivity HDAC2: HDAC8 over HDAC2; for HDAC8 fold selectivity HDAC3: HDAC8 over HDAC3; for activity at 0.0125 µM: 1.25 × 10^−8 M; for fold selectivity for HDAC8 over HDAC1, 2, and 3: HDAC8 versus HDAC1, 2, 3
T1 construct: purchased BPS Bioscience
T1 sequence (Q9BY41 1-377): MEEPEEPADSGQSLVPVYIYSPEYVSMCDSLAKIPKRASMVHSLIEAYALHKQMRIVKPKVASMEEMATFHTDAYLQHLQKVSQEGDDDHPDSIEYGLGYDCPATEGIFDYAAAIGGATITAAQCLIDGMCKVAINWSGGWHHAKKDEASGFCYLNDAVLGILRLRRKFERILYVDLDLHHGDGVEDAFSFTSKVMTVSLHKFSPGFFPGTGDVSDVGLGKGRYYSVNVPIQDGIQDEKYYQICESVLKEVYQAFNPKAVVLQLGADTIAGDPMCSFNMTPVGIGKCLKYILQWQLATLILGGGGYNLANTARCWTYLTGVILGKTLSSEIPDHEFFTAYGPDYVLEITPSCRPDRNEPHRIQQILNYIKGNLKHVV
Procedure: Inhibitory activity with HDAC8 was measured using the following procedure. In a half area 96-well white opaque plate, recombinant HDAC8 (75 ng, BPS Bioscience) was incubated in HDAC-Glo™ buffer (39 μL) with inhibitor in DMSO (1 μL), or DMSO alone (1 μL) as a control, for 15 minutes at room temperature. HDAC-Glo™ reagent (10 μL) was added to each reaction and incubated for 30 min at room temperature. Luminescent signal was measured 30 minutes after adding the substrate reagent using a Geniosplus Fluorimeter (Tecan) at optimal gain. To determine IC50, the luminescent signal was first background corrected with the signal from a background control reaction where no HDAC8 enzyme was added.

[2] = in vitro; settings: human, Jurkat cells (leukemia cell line)
[3] = tested on: U937 cells; assay: In vitro cell growth inhibition, MTT assay, U937; type: cell-based; settings: Homo sapiens, U-937, U937 cell line
[4] = tested on: acetyl-α-tubulin (HDAC6 substrate) in U937 cells; assay: In cellulo selectivity testing, western blot of acetyl-α-tubulin; type: cell-based; settings: 18 hours, SAHA 5 μM, 1f 20-60 μM, compared to DMSO control
[5] = read-out: Deacetylase activity (%) HDAC8

Compound	IC50 [1] [nM]	activity at 0.1 µM [1, 5] [%]	activity at 0.2 µM [1, 5] [%]	activity at […] [1, 5] [%]	activity at 0.4 µM ([1]; 4.0 × 10^−7 M, read-out: Deacetylase activity (%) HDAC8) [%]	activity at 0.05 µM [1, 5] [%]	HDAC8 fold selectivity HDAC1 [1] [fold]	HDAC8 fold selectivity HDAC2 [1] [fold]	HDAC8 fold selectivity HDAC3 [1] [fold]	viability at 44 h, 1 µM [2] [%]	viability at 44 h, 10 µM [2] [%]	activity at 0.0125 µM [1, 5] [%]	fold selectivity for HDAC8 over HDAC1, 2, and 3 [1] [fold]	EC50 [3] [nM]	levels of acetyl-α-tubulin (AcTub), western blot [4]
CCC(CCCC(=O)Nc1ccccc1)CCC(=O)NO (racemic) [Compound 1b, 4-ethyl-N^1-hydroxy-N^8-phenyloctanediamide]	130 ± 3	55 ± 2	39 ± 1	83 ± 2	25 ± 1	73 ± 2	34	38	46	–	–	–	–	–	–
CCCCCCC(CCCC(=O)Nc1ccccc1)CCC(=O)NO (racemic) [Compound 1d, 4-hexyl-N^1-hydroxy-N^8-phenyloctanediamide]	79 ± 3	42 ± 4	27 ± 2	78 ± 6	–	63 ± 4	440	480	380	69 ± 4	39 ± 6	92 ± 1	≥ 380	16000	–
O=C(CCC(CCCC(=O)Nc1ccccc1)Cc1ccccc1)NO (racemic) [Compound 1f, 4-benzyl-N^1-hydroxy-N^8-phenyloctanediamide]	57	34 ± 2	21 ± 1	73 ± 2	–	51 ± 1	510	670	740	89 ± 20	97 ± 4	87 ± 4	≥ 510	28000	dose-dependent increase
